Experimental data published in patent EP0545103A1, “Insecticidal, acaricidal and molluscicidal 1-(substituted) thioalkylpyrroles” (priority 1991, dated 1993).

What was measured:
[1] = test system: Erysiphe graminis, tritici; test: In vivo fungicidal activity, Wheat Powdery Mildew (WPM); conditions: rate 400 ppm, rating, averaged
Procedure: (§1) Test compounds are dissolved in acetone and diluted with deionized water containing about 0.05% TWEEN 20®, a polyoxyethylene sorbitan monolaurate surfactant manufactured by Atlas Chemical Industries, to give a concentration of 400 ppm. Subsequent dilutions are made with an 0.05% aqueous solution of TWEEN 20®.
(§2) Host plants are sprayed with test solution, dried and inoculated with fungi. When disease symptom development is optimal, the plants are rated for disease control according to the rating scale shown below. Each test contains inoculated treated plants, inoculated untreated plants and a reference standard.
(§3) When more than one test is run, the data are averaged.

Pythium ultimum = test: In vitro fungicidal activity, mycelial growth inhibition on agar (Pyth); format: cell-based; conditions: Globisporangium ultimum, 48 h, two days
Procedure: (§4) Test compounds are dissolved in acetone, diluted with sterile, deionized water and mixed with a partially cooled, autoclaved, chemically defined agar medium. This mixture is poured into several 100mm x 15mm sterile plastic plates and allowed to solidify. The surface of each plate is inoculated with a single disc of mycelium and agar cut with an 8mm diameter cork borer from actively growing cultures of assay fungi on a chemically defined agar medium. The plates are incubated at room temperature. Growth inhibition is determined when the mycelial growth on unamended control media has reached the edge of the petri plates. The time interval varies depending on the growth rate of the fungus; two days for Pythium ultimum (pyth) and Rhizoctonia solani (Rhiz) , five days for Botrytis cinerea (Betry) and 7-10 days for Pseudocercosporella herpotrichoides (Pseudo). Each colony diameter is measured and compared with the untreated control and the percent inhibition is calculated as follows: [formula] Each test includes a solvent blank consisting of the formulation without a test compound in addition to the untreated control.
(§5) Assay fungi include the plant pathogens, Pythium ultimum (Pyth) and Rhizoctonia solani (Rhiz).
(§6) When more than one test is run the data are averaged.

[2] = test system: Puccinia recondita, tritici; test: In vivo fungicidal activity, Wheat Leaf Rust (WLR); conditions: rate 400 ppm, rating, averaged
Procedure: as §1, §2, §3

Plasmopara viticola = test: In vivo fungicidal activity, Grape Downy Mildew (GDM); conditions: rate 400 ppm, rating, averaged
Procedure: as §1, §2, §3

Cercospora beticola = test: In vivo fungicidal activity, Sugarbeet Cercospora (SBC); conditions: rate 400 ppm, rating, averaged
Procedure: as §1, §2, §3

Rhizoctonia solani = test: In vitro fungicidal activity, mycelial growth inhibition on agar (Rhiz); format: cell-based; conditions: 48 h, two days
Procedure: as §4, §5, §6

[3] = test system: Spodoptera eridania, 3rd instar larvae, southern armyworm; test: Southern armyworm 3rd instar test, dipped limabean leaf; format: in vivo; conditions: 1000 ppm
Method in brief: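 Compound dissolved in 35% acetone/water at 10,000 ppm stock, diluted with water. Sieva limabean leaves dipped 3 s, dried, and exposed to ten 3rd instar larvae on damp filter paper. Mortality, reduced feeding and molting interference scored at 3 and 5 days on a rating scale.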

Venturia inaequalis = test: In vivo fungicidal activity, Apple Scab (AS); conditions: rate 400 ppm, host plants sprayed then inoculated, rating, averaged
Procedure: as §1, §2, §3

[4] = test system: Diabrotic undecimpunctata howardi, 3rd instar southern corn rootworm; test: Southern corn rootworm soil test; format: in vivo; set-up: key: 0: no effect; 10-25% kill; 26-35% kill; 36-45% kill; 46-55% kill; 56-65% kill; 66-75% kill; 76-85% kill; 86-99% kill; 9: 100% kill; conditions: 50 (ppm as headed), mortality rating after 6 days
Method in brief: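 Compound applied in acetone to talc at 1.25 and 0.25 mg active ingredient per jar (about 50 and 10 kg/ha), dried, then mixed with millet seed and moist soil. Ten 3rd instar larvae added per jar; mortality counted at 6 days, with missing larvae scored dead. Results rated on a scale.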

## N#CSCn1c(Br)c(Br)c(C#N)c1Br [Example 38, 1-[(cyanothio)methyl]-2,4,5-tribromopyrrole-3-carbonitrile]
[1]
  Disease Control WPM: 0 (0)
Pythium ultimum; rate 1 ppm in agar
  inhibition at 1 ppm: 1.5%
Pythium ultimum; rate 10 ppm in agar
  inhibition at 10 ppm: 4%
Pythium ultimum; rate 25 ppm in agar
  inhibition at 25 ppm: 4.5%
[2]
  Disease Control WLR: 5.0
Plasmopara viticola
  Disease Control GDM: 3.0
Cercospora beticola
  Disease Control SBC: 0 (0)
Rhizoctonia solani; rate 1 ppm in agar
  inhibition at 1 ppm: 1.5%
Rhizoctonia solani; rate 10 ppm in agar
  inhibition at 10 ppm: 3.5%
Rhizoctonia solani; rate 25 ppm in agar
  inhibition at 25 ppm: 5.8%
[3]; rating at 3 days
  ARMYWORM Day 3: 9 (100% kill)
[3]; rating at 5 days
  ARMYWORM Day 5: 9 (100% kill)
Venturia inaequalis
  Disease Control AS: 2.0
[4]
  SOUTHERN CORN ROOTWORM: 0
